Reference: patent US20080221100A1, “SOLUBLE EPOXIDE HYDROLASE INHIBITORS” (Arete Therapeutics, Inc., priority 2006, published 2008)

Key:
[1] = system: soluble epoxide hydrolase (sEH); test: Fluorescent assay for mouse and human soluble epoxide hydrolase (CMNPC substrate); format: biochemical, mouse or human, not specified
From the text: Fluorescent Assay for Mouse and Human Soluble Epoxide Hydrolase Recombinant mouse sEH (MsEH) and human sEH (HsEH) were produced in a baculovirus expression system as previously reported. Grant et al., J. Biol. Chem., 268:17628-17633 (1993); Beetham et al., Arch. Biochem. Biophys., 305:197-201 (1993). The expressed proteins were purified from cell lysate by affinity chromatography. Wixtrom et al., Anal. Biochem., 169:71-80 (1988). Protein concentration was quantified using the Pierce BCA assay using bovine serum albumin as the calibrating standard. […] They contained no detectable esterase or glutathione transferase activity which can interfere with the assay. The assay was also evaluated with similar results in crude cell lysates or homogenate of tissues. The IC50s for each inhibitor were determined according to the following procedure: Substrate: [drawing 155] […] Jones P. D. et al.; Analytical Biochemistry 2005; 343: pp. 66-75) Solutions: Bis/Tris HCl 25 mM pH 7.0 containing 0.1 mg/mL of BSA (buffer […] at 0.25 mM in DMSO. Mother solution of enzyme in buffer A (Mouse sEH at 6 μg/mL and Human sEH at 5 μg/mL). Inhibitor dissolved in DMSO at the appropriate concentration. Protocol: In a black 96 well plate, fill all the wells with 150 μL of buffer A. Add 2 μL of DMSO in well A2 and A3, and then add 2 μL of inhibitor solution in A1 and A4 through A12. Add 150 μL of buffer A in row A, then mix several time and transfer 150 μL to row B. Repeat this operation up to row H. The 150 μL removed from row H is discarded. Add 20 μL of buffer A in column 1 and 2, then add 20 μL of enzyme solution to column 3 to 12. Incubate the plate for 5 minutes in the plate reader at 30° C. During incubation prepare the working solution of substrate by mixing 3.68 mL of buffer A (4×0.920 mL) with 266 μL (2×133 μL) of substrate solution). At t=0, add 30 μL of working substrate solution with multi-channel pipette labeled “Briggs 303” and start the reading ([S]final: 5 μM). Read with ex: 330 nm (20 nm) and em: 465 nm (20 nm) every 30 second for 10 minutes. The velocities are used to analyze and calculate the IC50s.

| SMILES | melting point [°C] | % Inhibition ([1]; Conc 50 nM) [%] | % Inhibition ([1]; Conc 500 nM) [%] | % Inhibition ([1]; Conc 200 nM) [%] | % Inhibition ([1]; Conc 2000 nM) [%] |
| --- | --- | --- | --- | --- | --- |
| CS(=O)(=O)N1CCC(NC(=O)Nc2ccc(F)cc2)CC1 [Compound 27, 1-(4-Fluoro-phenyl)-3-(1-methanesulfonyl-piperidin-4-yl)-urea] | 186 to 188 | 80 |  |  |  |
| O=C(Nc1ccc(C(F)(F)F)cc1)NC1CCN(C(=O)c2ccc(N3CCOCC3)cc2)CC1 [Compound 37, 1-(1-(4-Morpholinobenzoyl)piperidin-4-yl)-3-(4-(trifluoromethyl)phenyl)urea] | 312 to 315 | 98 |  |  |  |
| CC(=O)N1CCC(NC(=O)Nc2cccc(F)c2)CC1 [Compound 32, 1-(1-Acetyl-piperidin-4-yl)-3-(3-fluoro-phenyl)-urea] | 112 to 114 |  | 80 |  |  |
| O=C(Nc1ccc(F)cc1)NC1CCN(S(=O)(=O)c2ccc(Cl)cc2)CC1 [Compound 19, 1-[1-(4-Chloro-benzenesulfonyl)-piperidin-4-yl]-3-(4-fluoro-phenyl)-urea] | 160 to 162 |  | 85 |  |  |
| CC(C)(C)S(=O)(=O)N1CCC(NC(=O)Nc2ccc(C(F)(F)F)cc2)CC1 [Compound 54, 1-(1-(tert-butylsulfonyl)piperidin-4-yl)-3-(4-(trifluoromethyl)phenyl)urea] | 260 to 261 |  |  | 97 |  |
| O=C(Nc1cccc(F)c1)NC1CCN(S(=O)(=O)c2ccccc2)CC1 [Compound 22, 1-(1-Benzenesulfonyl-piperidin-4-yl)-3-(3-fluoro-phenyl)-urea] | 186 to 188 | 82 |  |  |  |
| CC(C)(Oc1ccc(C(=O)N2CCC(NC(=O)Nc3ccc(C(F)(F)F)cc3)CC2)cc1)C(=O)O [Compound 40, 2-Methyl-2-(4-(4-(3-(4-(trifluoromethyl)phenyl)ureido)piperidine-1-carbonyl)phenoxy)propanoic acid] | 197 to 199 | 68 |  |  |  |
| O=C(Nc1ccc(C(F)(F)F)cc1)NC1CCN(C(=O)N2CCOCC2)CC1 [Compound 55, 1-(1-(morpholine-4-carbonyl)piperidin-4-yl)-3-(4-(trifluoromethyl)phenyl)urea] | 234 to 236 |  |  |  | 43 |
| O=C(Nc1cccc(F)c1)NC1CCN(S(=O)(=O)c2cccc(C(F)(F)F)c2)CC1 [Compound 28, 1-(3-Fluoro-phenyl)-3-[1-(3-trifluoromethyl-benzenesulfonyl)-piperidin-4-yl]-urea] | 86 to 88 | 94 |  |  |  |
| O=C(Nc1ccc(C(F)(F)F)cc1)NC1CCN(S(=O)(=O)CCCO)CC1 [Compound 50, 1-(1-(3-hydroxypropylsulfonyl)piperidin-4-yl)-3-(4-(trifluoromethyl)phenyl)urea] | 200 to 205 |  |  | 98 |  |
| Cc1nc(C(=O)N2CCC(NC(=O)Nc3ccc(C(F)(F)F)cc3)CC2)c(C)o1 [Compound 39, 1-(1-(2,5-Dimethyloxazole-4-carbonyl)piperidin-4-yl)-3-(4-(trifluoromethyl)phenyl)urea] | 217 to 219 | 92 |  |  |  |
| O=C(Nc1ccc(C(F)(F)F)cc1)NC1CCN(C(=O)CCCO)CC1 [Compound 53, 1-(1-(4-hydroxybutanoyl)piperidin-4-yl)-3-(4-(trifluoromethyl)phenyl)urea] | 175 to 182 |  |  | 100 |  |
| O=C(Nc1ccc(Cl)cc1)NC1CCN(C(=O)c2ccc(N3CCOCC3)cc2)CC1 [Compound 36, 1-(4-Chlorophenyl)-3-(1-(4-morpholinobenzoyl)piperidin-4-yl)urea] | 303 to 308 | 95 |  |  |  |
| O=C(Nc1cccc(F)c1)NC1CCN(S(=O)(=O)c2ccc(Cl)cc2)CC1 [Compound 23, 1-[1-(4-Chloro-benzenesulfonyl)-piperidin-4-yl]-3-(3-fluoro-phenyl)-urea] | 245 to 248 | 91 |  |  |  |
| CC(=O)N1CCC(NC(=O)Nc2ccc(F)cc2)CC1 [Compound 21, 1-(1-Acetyl-piperidin-4-yl)-3-(4-fluoro-phenyl)-urea] | 146 to 148 |  | 74 |  |  |
| O=C(Nc1ccc(C(F)(F)F)cc1)NC1CCN(C(=O)CCO)CC1 [Compound 49, 1-(1-(3-hydroxypropanoyl)piperidin-4-yl)-3-(4-(trifluoromethyl)phenyl)urea] | 158 to 160 |  |  | 90 |  |
| CC(C)(O)CCC(=O)N1CCC(NC(=O)Nc2ccc(C(F)(F)F)cc2)CC1 [Compound 47, 1-(1-(4-hydroxy-4-methylpentanoyl)piperidin-4-yl)-3-(4-(trifluoromethyl)phenyl)urea] | 184 to 186 |  |  | 93 |  |
| CC(C)(C)OC(=O)C(C)(C)Oc1ccc(C(=O)N2CCC(NC(=O)Nc3ccc(C(F)(F)F)cc3)CC2)cc1 [Compound 38, Tert-butyl 2-methyl-2-(4-(4-(3-(4-(trifluoromethyl)phenyl)ureido)piperidine-1-carbonyl)phenoxy)propanoate] | 206 to 208 | 89 |  |  |  |
